{"source": "patent US20230390324A1", "about": "“TREATMENT OF FATTY LIVER DISEASES” (TX MEDIC AB, priority 2020, published 2023)", "key": {"[1]": {"test": "Serum total bilirubin in patients before and after dextran sulfate administration", "assay_type": "in vivo", "conditions": "human patients with a neurological disease, 2 mg/kg subcutaneous once a week for ten weeks, week 10 vs week 0, p<0.05, FIG. 1", "experimental": "Dextran sulfate (Tikomed A B, Viken, Sweden, WO 2016/076780) was administered at 2 mg/kg by […] subcutaneous injection once a week for ten weeks to human patients suffering from a neurological disease.\nPeripheral venous blood samples were collected from patients before (week 0) and after dextran sulfate administration (week 5 and week 10) after at least 15 minutes of complete rest, using the standard tourniquet procedure, from the antecubital vein into a single VACUETTE® polypropylene tube containing serum separator and clot activator (Greiner-Bio One GmbH, Kremsmunster, Austria). After 30 mins at room temperature (20-25° C.), blood withdrawals were centrifuged at 1,890×g for 10 min to get serum aliquots.\nA serum aliquot of about 300 μl was light-protected and then processed to extract fat-soluble metabolites using a method described in detail (Lazzarino et al., Single-step preparation of selected biological fluids for the high performance liquid chromatographic analysis of fat-soluble vitamins and antioxidants, J Chromatogr A. 2017; 1527: 43-52). Briefly, samples were supplemented with 1 ml of HPLC-grade acetonitrile, vigorously vortexed for 60 sec and incubated at 37° C. for 1 h in a water bath under agitation to allow the full extraction of lipid soluble compounds. […]"}, "[2]": {"tested_on": "12 BioMAP® Diversity Plus human cell systems", "test": "BioMAP Diversity PLUS phenotypic profiling in 12 primary human cell and co-culture systems", "assay_type": "cell-based", "experimental": "Twelve primary human cell and co-cultures assays were used to assess the effects of dextran sulfate on clinically-relevant protein biomarkers of inflammation, cell growth and fibrosis as part of the quality controlled BioMAP® Diversity PLUS, commercially available service (Eurofins DiscoverX Corporation, Freemont, CA, USA; for full details https://www.discoverx.com). Dextran sulfate was tested in these assays at four concentrations: 4000 nMw 1300 nMw 400 nM and 150 nM. Human primary cells employed in the BioMAP® systems were used at passage 4 or earlier, derived from multiple donors (n=2 to 6), commercially purchased and handled according to the recommendations of the manufacturers. Human blood derived CD14+ monocytes were differentiated into macrophages in vitro before being added to the IMphg system (Eurofins DiscoverX Corporation).\nThe cell types and stimuli used in each assay system were as follows: 3C system [Human umbilical vein endothelial cells (HUVEC)+(IL-1β, TNFα and IFNγ)], 4H system [HUVEC+(IL-4 and histamine)], LPS system [Peripheral blood mononuclear cells (PBMC) and HUVEC+LPS (TLR4 ligand)], SAg system [PBMC and HUVEC+TCR ligands], BT system [CD19+ B cells and PBMC+(α-IgM and TCR ligands)], BF4T system [bronchial epithelial cells (BEC) and human neonatal dermal fibroblasts (HDFn)+(TNFα and IL-4)], BE3C system [BEC+(IL-1β, TNFα and IFNγ)], CASM3C system [coronary artery smooth muscle cells (CASMC)+(IL-1β, TNFα and IFNγ)], HDF3CGF system [HDFn+(IL-1β, TNFα, IFNγ, EGF, bFGF and PDGF-BB)], KF3CT system [keratinocytes and HDFn+(IL-1β, TNFα, IFNγ and TGFβ)], MyoF system [differentiated lung myofibroblasts+(TNFα and TGFβ)] and IMphg system [HUVEC and M1 macrophages+Zymosan (TLR2 ligand)].\nAssays were derived from either single cell types or co-culture systems. Adherent cell types were cultured in 96 or 384-well plates until confluence, followed by the addition of PBMC (SAg and LPS systems). […] Test agents prepared in either DMSO (small molecules; final concentration 0.1%) or PBS (biologics) were added at the indicated concentrations 1 h before stimulation, and cells remained in culture for 24 h or as otherwise indicated (48 h, MyoF system; 72 h, BT system (soluble readouts); 168 h, BT system (secreted IgG)). […] Soluble factors from supernatants were quantified using either HTRF® detection, bead-based multiplex immunoassay or capture ELISA. Overt adverse effects of dextran sulfate on cell proliferation and viability (cytotoxicity) were detected by sulforhodamine B (SRB) staining for adherent cells, and alamarBlue® reduction for cells in suspension. For proliferation assays, individual cell types were cultured at subconfluence and measured at time points optimized for each system (48 h: 3C and CASM3C systems; 72 h: BT and HDF3CGF systems; 96 h: SAg system). Cytotoxicity for adherent cells was measured by SRB (24 h: 3C, 4H, LPS, SAg, BF4T, BE3C, CASM3C, HDF3CGF, KF3CT, and IMphg systems; 48 h: MyoF system), and by alamarBlue® staining for cells in suspension (24 h: SAg system; 42 h: BT system) at the time points indicated.\nBiomarker measurements in dextran sulfate-treated samples were divided by the average of the control samples (at least 6 vehicle controls from the same plate) to generate a ratio that was then log10 transformed. Significance prediction envelopes were calculated using historical vehicle control data at a 95% confidence interval. […]"}, "[3]": {"tested_on": "Human Schwann cells (ATCC CRL-2884™)", "test": "Gene expression study in cultured human Schwann cells (microarray, IPA network analysis)", "assay_type": "cell-based", "conditions": "0.01 mg/ml, 48 hours", "experimental": "Human Schwann cells (ATCC CRL-2884™) were cultured in 25 cm^2 culture flasks coated with poly-d-lysine and laminin) in high-glucose DMEM with 10% fetal bovine serum (FBS) (n=8) and incubated at 37° C./5% CO2. Twenty-four house after seeding (Day 0) cells were treated once with either dextran sulfate (0.01 mg/ml in DMEM) or culture media. After 48 hours with treatment, the media were removed and cells were harvested in 2.5 ml Trizol:Water (4:1) solution containing 0.5 ml of chloroform at room temperature (RT). The flasks were inspected under the microscope to ensure full removal of cells. The collected lysates were stored at −80° C.\nLysates were left to equilibrate for 5 minutes at room temperature to permit the complete dissociation of nucleoprotein complexes. 1 ml lysate was removed from each sample and 200 μL of chloroform was added to each and the tube was shaken vigorously. Samples were stored at room temperature for 2-3 minutes and subsequently centrifuged at 12,000×g/15 min at 4° C. The mixture separated into 3 layers: a lower red phenol-chloroform phase, an interphase and a colorless upper aqueous phase. The top % of the aqueous phase (containing the RNA) was transferred to a new clean Eppendorf tube. The RNA was precipitated from the aqueous phase by adding an equal amount of 100% ethanol. The precipitated RNA was fixed onto a Spin Cartridge, washed twice and dried. The RNA was eluted in 50 μL warm RNase-Free Water. The amount and quality of the purified RNA was measured by Nanodrop. The RNA was stored at −80° C. before transfer to Source Bioscience for Gene Array analysis.\nThe background corrected expression data from each sample were downloaded into a separate file. The background corrected signal was log2 transformed for all samples for statistical analysis. To reduce the false discovery rate in the samples, the signals that were below ‘expression level’ were removed. The ‘below expression’ level was set at 5 for the log2 transformed expression values. (The expression value of the MAPT gene, which is not normally expressed in Schwann cells, was <5. However, the expression of usual ‘control’ gene ACTB (A_32_P137939; ACTB) was comfortably above 5).\nMetaboAnalyst (Chong and Xia, MetaboAnalystR: an R package for flexible and reproducible analysis of metabolomics data, Bioinformatics 34(24): 4313-4314 (2018)) was used to analyze the gene expression profiles. […]\nAdditionally, a preliminary analysis was carried out to screen out genes that were not differentially expressed between any combinations of the three datasets. […] The remaining probe sets were analyzed for fold change and significance using Volcano plots (Qlucore, Lund, Sweden). […]"}, "[4]": {"conditions": "protein level, BioMAP Diversity Plus"}}, "data": [{"substance": "Dextran sulfate", "values": [{"measurement": "circulating levels of total bilirubin (free bilirubin + conjugated bilirubin)", "setting": "[1]", "result": "significant time-dependent decrease"}, {"measurement": "overall analysis of the responses of the 12 model systems", "setting": "[2]; 150-4000 nM, FIG. 3", "result": "modulated inflammatory and immunoregulatory cytokines and molecules, tissue remodeling pathways (including activation of matrix degrading enzymes) and hemostasis activity"}, {"measurement": "cytotoxicity (SRB staining / alamarBlue reduction)", "setting": "[2]; all human culture systems evaluated, 150, 400, 1300 and 4000 nM", "result": "no cytotoxicity evident"}, {"measurement": "CXCL9 levels", "setting": "[2]; [4]", "result": "reduced levels"}, {"measurement": "CXCL10 levels", "setting": "[2]; [4]", "result": "reduced levels"}, {"measurement": "CXCL11 levels", "setting": "[2]; [4]", "result": "reduced levels"}, {"measurement": "effect on inflammatory genes (molecular network analysis)", "setting": "[3]; FIG. 5B", "result": "resolution of the normal inflammatory response"}, {"measurement": "expression of the anti-fibrotic proteoglycan decorin", "setting": "[3]; TGFβ-regulated gene network", "result": "upregulating"}, {"measurement": "share of molecules of the TGFβ-regulated fibrosis network whose expression was regulated", "setting": "[3]; 14 of 165 molecules, p<0.001", "result": 8.5, "unit": "%"}, {"measurement": "number of molecules of the TGFβ-regulated mechanistic network responsible for fibrosis whose expression was regulated", "setting": "[3]; of 165 molecules, p<0.001", "result": 14}]}]}
